Assay results from patent US20200337297A1, “SYSTEM AND METHOD FOR CARBON MONOXIDE […] BLOOD COMPONENTS” (SAFETIN LTD., priority 2017, published 2020).

How the values were obtained:
[1] = tested on: platelets; assay: ATP quantitation in stored platelets (luminometric ATP bioluminescence kit); type: cell-based, human
Method: PC fractions were identically prepared from CO pretreated or untreated blood by consecutive centrifugation in a sterile environment using blood bank conditions. Bicarbonate (4% of PC volume) was then added from a stock solution of 750 mM with agitation to yield a final bicarbonate concentration of 30 mM. Next, the PC was treated with CO in a similar manner to whole blood. Alternatively, rather than applying a vacuum, the containers were flushed for 10 min. with sterile CO while agitating the containers, which were then sealed. The containers were allowed to stay at room temperature of 20-24 degree C.° PRP platelets were treated similarly.
A luminometric ATP was measured by Veritas™ Microplate Luminometer (Tuner Biosystems) by using an ATP bioluminescence kit (CLS II) from Roche (cat No. 11 699 709 001) Mannheim Germany The assay was performed according to the manufacturer's instructions. Briefly: 50 μl of cell lysate (500000 cell per sample) or ATP standard concentration was added in advance to each well in 96 well LIA-white plate (Greiner bio one). Automatic injection of 50 μof substrate solution (luciferin and luciferase) was added to each well by the device and the luminescence was measured. ATP concentrations were calculated based on an ATP standard curve. Each sample was tested in triplicate.

[2] = tested on: human platelets in rabbit blood circulation; assay: In vivo platelets viability analysis in a rabbit model
Method: Female New Zealand white rabbits (2.5-3 kg) were infused with Ethyl Palmytate (EP) to inhibit the Macrophages function (Blajchman M A and Lee D H, “The thrombocytopenic rabbit bleeding time model to evaluate the in vivo hemostatic efficacy of platelets and platelet substitutes”, Transfus Med Rev 1997, 11:95-105). EP solution (10 ml) was prepared by mixing (up to homogeneity) of 2.25 ml EP with 7.75 ml of 5% dextrose containing 1% Tween-20.
[…] Blood samples at time intervals were analyzed by flow cytometry with FITC labeled anti-CD42a for the presence of human platelets (Rothwell S W, Maglasang P et al., “Survival of fresh human platelets in a rabbit model as traced by flow cytometry”, Transfusion 1998, 38:550-556; Leytin V, Allen D J et al., “A rabbit model for monitoring in vivo viability of human platelet concentrates using flow cytometry”, Transfusion 2002, 42:711-718). 100% represented the total number of normalized human platelet in rabbit circulation after 30 min from the injection.

[3] = tested on: platelets; assay: Analysis of phosphatidylserine (PS) exposure by FACS (AnnexinV-FITC); type: cell-based, human
Method: PS exposure was measured by FACS analysis of bound AnnexinV-FITC using 488 nm for excitation and 530 nm for emission. (Shapira S, Friedman Z et al., “The effect of storage on the expression of platelet membrane phosphatidylserine and the subsequent impact on the coagulant function of stored platelets”, Transfusion 2000, 40:1257-1263)

`[C-]#[O+]` [COatm, carbon monoxide] was tested, and the “ATP level relative to the initial value of the ATP of air preserved platelets” value ([1]; 5 days COatm storage, then overnight re-aeration) was 74%, the “ATP level relative to the level in fresh PC” value ([1]; platelets stored as PC 5 days under anaerobic COatm) was 28% and the “time dependent survival of stored human platelets in rabbit blood circulation” value ([2]; 7 days stored, COatm vs air-stored (FIG. 5)) was “survive longer in vivo than air-stored platelets”. For the same compound, the “survival of stored platelets in rabbit blood circulation” value ([2]; Plt preserved for 9 days, COatm vs air (FIG. 5)) was “survived for longer in blood circulation”, the “PS exposure after transfer to air” value ([3]; 9 days COatm-stored, then re-aerated (FIG. 6d)) was “another fraction returned to very low PS exposure” and the “PS exposure, change during extended storage” value ([3]; extended storage under COatm up to 9 days) was “no further changes”. The PS exposure ([3]; several hours of storage under COatm (FIG. 6b)) was “most cells are PS-exposed”.
